Experiments:
NMDA receptor = conditions: cited from earlier work
[1] = Pharmacokinetics of ketamine and norketamine in plasma after oral gavage; conditions: for norketamine exposure relative to ketamine exposure compared to unconjugated ketamine / release of ketamine compared to unconjugated ketamine: in words; for release of ketamine compared to unconjugated ketamine: administered orally
[2] = Pharmacokinetics of ketamine and norketamine in plasma after intranasal administration
[3] = analyte ketamine, oral, mean conjugate parameter/mean comparator parameter
[4] = analyte norketamine, oral, mean conjugate parameter/mean comparator parameter
[5] = oral gavage, ketamine % parameter/norketamine % parameter

In the case of CN[C@]1(c2ccccc2Cl)CCCCC1=O (single isomer, unassigned) [S(+) isomer, reference compound], the “NMDA receptor antagonist potency relative to the R(−) isomer” value (NMDA receptor; background statement) is given as “approximately three to four times that of the R(−) isomer”.
With CN(C(=O)OCOC(=O)c1ccncc1)C1(c2ccccc2Cl)CCCCC1=O.Cl (stereo not shown) [3b, Isonicotinate-CH2OCO-KTM HCl] the “norketamine exposure relative to ketamine exposure compared to unconjugated ketamine” value ([1]; oral) was “reduced norketamine exposure relative to ketamine exposure”.
In the case of CSCC[C@H](NC(=O)c1ccc[n+](COC(=O)N(C)C2(c3ccccc3Cl)CCCCC2=O)c1)C(=O)O (stereo partly shown) [10s, KTM-CO2CH2-nicotinoyl-Met], the “norketamine exposure relative to ketamine exposure compared to unconjugated ketamine” value ([1]; oral) was “reduced norketamine exposure relative to ketamine exposure”.
With CCOC(=O)CN(C)C(=O)c1ccc[n+](COC(=O)N(C)C2(c3ccccc3Cl)CCCCC2=O)c1.[Cl-] (racemic) [9b, KTM-CO2CH2-nicotinoyl-Sar(Et)] the “% AUC0-4 hr, relative oral bioavailability of ketamine vs study comparator (Ketamine HCl)” value [1, 3] was 123%, the “% Cmax, relative oral bioavailability of ketamine vs study comparator (Ketamine HCl)” value [1, 3] was 124% and the “% AUC0-4 hr, relative oral bioavailability of norketamine vs study comparator (Ketamine HCl)” value [1, 4] was 62.7%. The “% Cmax, relative oral bioavailability of norketamine vs study comparator (Ketamine HCl)” value [1, 4] was 66.9%, the “% Exposure Ratio Ketamine:Norketamine, AUC0-4 hr” value [1, 5] was 1.96 and the “% Exposure Ratio Ketamine:Norketamine, Cmax” value [1, 5] was 1.85. The “norketamine exposure relative to ketamine exposure compared to unconjugated ketamine” value ([1]; oral) was “reduced norketamine exposure relative to ketamine exposure”, the “% AUC0-1 hr, relative intranasal bioavailability of ketamine vs study comparator (Ketamine HCl)” value ([2]; analyte ketamine, intranasal, mean conjugate parameter/mean comparator parameter) was 68.1% and the “% Cmax, relative intranasal bioavailability of ketamine vs study comparator (Ketamine HCl)” value ([2]; analyte ketamine, intranasal, mean conjugate parameter/mean comparator parameter, 10k: time course stopped at 0.5 hours) was 62.0%. For the same compound, the “% AUC0-1 hr, relative intranasal bioavailability of norketamine vs study comparator (Ketamine HCl)” value ([2]; analyte norketamine, intranasal, mean conjugate parameter/mean comparator parameter) was 39.5%, the “% Cmax, relative intranasal bioavailability of norketamine vs study comparator (Ketamine HCl)” value ([2]; analyte norketamine, intranasal, mean conjugate parameter/mean comparator parameter, 10k: time course stopped at 0.5 hours) was 37.1% and the “% Exposure Ratio PO:IN, Cmax” value ([2]; ketamine % parameter PO/ketamine % parameter IN) was 2.00. For the same compound, the “% Exposure Ratio PO:IN, AUC” value ([2]; ketamine % parameter PO/ketamine % parameter IN, AUC0-4 h for PO and AUC0-1 h for IN) was 1.80.
For CN(CC(=O)O)C(=O)c1cc[n+](COC(=O)N(C)C2(c3ccccc3Cl)CCCCC2=O)cc1 (stereo not shown) [11b, KTM-CO2CH2-isonicotinoyl-Sar], the “release of ketamine compared to unconjugated ketamine” value [1] was “extended or delayed release” and the “norketamine exposure relative to ketamine exposure compared to unconjugated ketamine” value ([1]; oral) was “reduced norketamine exposure relative to ketamine exposure”.
For CC[C@H](C)[C@H](NC(=O)c1ccc[n+](COC(=O)N(C)C2(c3ccccc3Cl)CCCCC2=O)c1)C(=O)O (stereo partly shown) [10e, KTM-CO2CH2-nicotinoyl-Ile], the “norketamine exposure relative to ketamine exposure compared to unconjugated ketamine” value ([1]; oral) was “reduced norketamine exposure relative to ketamine exposure”.
With CC(C)[C@H](NC(=O)c1ccc[n+](COC(=O)N(C)[C@]2(c3ccccc3Cl)CCCCC2=O)c1)C(=O)O [S-10d, (S)-KTM-CO2CH2-nicotinoyl-Val] the “norketamine exposure relative to ketamine exposure compared to unconjugated ketamine” value ([1]; oral) was “reduced norketamine exposure relative to ketamine exposure”.
For CC(C)[C@H](NC(=O)c1ccc[n+](COC(=O)N(C)C2(c3ccccc3Cl)CCCCC2=O)c1)C(=O)O (stereo partly shown) [10d, KTM-CO2CH2-nicotinoyl-Val], the “norketamine exposure relative to ketamine exposure compared to unconjugated ketamine” value ([1]; oral) was “reduced norketamine exposure relative to ketamine exposure”.
For CN(C(=O)OC[n+]1cccc(C(=O)N[C@@H](CCCCN)C(=O)O)c1)C1(c2ccccc2Cl)CCCCC1=O (stereo partly shown) [10g, KTM-CO2CH2-nicotinoyl-Lys], the “release of ketamine compared to unconjugated ketamine” value [1] was “extended or delayed release”.
For NC1(c2ccccc2Cl)CCCCC1=O (stereo not shown) [norketamine], the “NMDA receptor antagonist potency compared to ketamine” value (NMDA receptor; statement in words) is listed as “less potent antagonist”.
For CN(C(=O)OC[n+]1cccc(C(=O)N2CCC[C@H]2C(=O)O)c1)C1(c2ccccc2Cl)CCCCC1=O (stereo partly shown) [10f, KTM-CO2CH2-nicotinoyl-Pro], the “norketamine exposure relative to ketamine exposure compared to unconjugated ketamine” value ([1]; oral) was “reduced norketamine exposure relative to ketamine exposure”.
In the case of CN(C(=O)OC[n+]1cccc(C(=O)N[C@@H](CCC(N)=O)C(=O)O)c1)C1(c2ccccc2Cl)CCCCC1=O (stereo partly shown) [10k, KTM-CO2CH2-nicotinoyl-Gln], the “norketamine exposure relative to ketamine exposure compared to unconjugated ketamine” value ([1]; oral) was “reduced norketamine exposure relative to ketamine exposure”.
